Activity calls are given as the source filed them.

As usually defined, the AC50 is the midpoint of the concentration-response curve, whichever way the signal moves. Broadly, the IC50 is the concentration needed to halve the response being measured. As usually defined, the EC50 is the concentration that produces a half-maximal response. As usually defined, the CC50 is the concentration giving 50% cytotoxicity.

Targets include Cytochrome P450 3A4 (Homo sapiens, UniProt P08684); Cytochrome P450 2D6 (Homo sapiens, UniProt P10635); Cytochrome P450 2C9 (Homo sapiens, UniProt P11712).
Series [1] has as its target Glucose-6-phosphate 1-dehydrogenase (Homo sapiens, UniProt P11413). Kind of series: inhibition of Homo sapiens G6PD, dose series – biochemical, fluorescence, selectivity assay for P. falciparum G6PD inhibitor project, dose response (AID 504792). The series is classed as functional.
Series [2] relates to HEK293. Kind of series: inhibition of NOD1-driven NF-kB reporter – cell-based, luminescence, uHTS, primary screen (AID 1578). Conditions: Homo sapiens. The series is classed as functional.
Series [3] deals with HEK293. Briefly: cells. The series is classed as functional, cell-based. Conditions: Homo sapiens.
In series [4] the test system is HEK293. Briefly: cells. Conditions: Homo sapiens. The series is classed as functional, cell-based. This is another data set of the same source.
The target in series [5] is Nucleotide-binding oligomerization domain-containing protein 2 (Homo sapiens, UniProt Q9HC29). Briefly: inhibition of NOD2-driven NF-kB reporter – cell-based, luminescence, uHTS, HEK293 (AID 1566). The series is classed as functional.
For series [6], the system named is HEK293. Kind of series: NOD2 signaling inhibitors in MDP-stimulated cells, cell-based, uHTS, luminescence (AID 2001). The series is classed as functional. Particulars: Homo sapiens.
Series [7] relates to HEK293. Kind of series: cells. The series is classed as functional, cell-based. Particulars: Homo sapiens. This is another data set of the same source.
Series [8] addresses T1, Lysine-specific demethylase 4C (Homo sapiens, UniProt Q9H3R0).
T1 sequence (Q9H3R0 whole entry): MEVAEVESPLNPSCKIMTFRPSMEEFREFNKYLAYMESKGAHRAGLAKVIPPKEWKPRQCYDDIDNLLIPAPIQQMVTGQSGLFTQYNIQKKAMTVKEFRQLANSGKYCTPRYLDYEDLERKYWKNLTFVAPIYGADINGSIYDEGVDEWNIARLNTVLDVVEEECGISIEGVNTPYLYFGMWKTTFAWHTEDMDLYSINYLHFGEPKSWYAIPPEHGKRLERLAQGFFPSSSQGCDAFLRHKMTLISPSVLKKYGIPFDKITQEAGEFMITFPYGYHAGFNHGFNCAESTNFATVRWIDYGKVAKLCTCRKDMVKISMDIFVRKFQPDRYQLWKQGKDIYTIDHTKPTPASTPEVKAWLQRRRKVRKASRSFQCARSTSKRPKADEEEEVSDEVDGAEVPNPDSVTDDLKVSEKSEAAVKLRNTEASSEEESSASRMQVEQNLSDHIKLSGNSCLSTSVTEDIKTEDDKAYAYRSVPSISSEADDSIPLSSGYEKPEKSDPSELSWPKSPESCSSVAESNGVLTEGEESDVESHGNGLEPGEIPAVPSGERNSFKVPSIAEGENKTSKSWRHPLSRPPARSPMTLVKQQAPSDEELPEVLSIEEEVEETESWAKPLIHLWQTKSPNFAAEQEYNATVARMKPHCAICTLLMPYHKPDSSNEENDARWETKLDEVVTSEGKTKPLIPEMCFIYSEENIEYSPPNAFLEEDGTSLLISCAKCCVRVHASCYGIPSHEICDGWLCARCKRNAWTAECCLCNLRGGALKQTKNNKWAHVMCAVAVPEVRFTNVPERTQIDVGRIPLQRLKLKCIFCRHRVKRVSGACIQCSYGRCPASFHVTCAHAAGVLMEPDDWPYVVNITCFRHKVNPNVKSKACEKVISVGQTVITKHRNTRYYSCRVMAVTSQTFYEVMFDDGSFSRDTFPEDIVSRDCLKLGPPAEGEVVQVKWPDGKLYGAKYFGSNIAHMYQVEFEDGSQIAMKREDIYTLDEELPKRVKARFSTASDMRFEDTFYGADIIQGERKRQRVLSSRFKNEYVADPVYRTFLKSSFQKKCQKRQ
Briefly: inhibition of JMJD2C H3K9me3 demethylation – biochemical, DELFIA europium, cherry-picked samples, dose response (AID 488835). The series is classed as functional.

In another series the target is T2, Cytochrome P450 1A2 (Homo sapiens, UniProt P05177).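 Further: PubChem cytochrome P450 panel assay, CYP1A2 panel member.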
T2 sequence (P05177 whole entry): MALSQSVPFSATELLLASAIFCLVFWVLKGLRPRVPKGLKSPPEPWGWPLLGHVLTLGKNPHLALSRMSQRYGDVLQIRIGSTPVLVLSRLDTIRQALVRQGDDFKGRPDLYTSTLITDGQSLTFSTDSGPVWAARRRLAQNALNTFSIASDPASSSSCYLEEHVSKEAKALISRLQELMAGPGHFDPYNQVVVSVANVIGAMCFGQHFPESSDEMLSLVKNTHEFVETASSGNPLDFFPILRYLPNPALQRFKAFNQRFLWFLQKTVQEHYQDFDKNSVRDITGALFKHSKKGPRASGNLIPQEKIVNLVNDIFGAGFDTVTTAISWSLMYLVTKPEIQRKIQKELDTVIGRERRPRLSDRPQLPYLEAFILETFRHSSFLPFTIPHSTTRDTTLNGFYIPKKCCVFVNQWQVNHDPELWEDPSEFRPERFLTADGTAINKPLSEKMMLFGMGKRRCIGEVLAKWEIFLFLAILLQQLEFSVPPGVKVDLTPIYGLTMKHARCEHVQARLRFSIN

Another series has as its target Cytochrome P450 2C19 (Homo sapiens, UniProt P33261). Briefly: Cytochrome panel assay with activity outcomes. Panel member name: p450-cyp2c19 Compounds with AC50 equal or less than 10 uM are considered active. The series is classed as functional. Conditions: read-out: AC50.
Series [9] has as its target Luciferin 4-monooxygenase (Photinus pyralis, UniProt P08659). Briefly: inhibition of purified Photinus pyralis luciferase – biochemical, luminescence, dose response (AID 1891).
Series [10] in a line: Luminescence Cell-Based Dose Confirmation HTS to Identify Inhibitors of Platelet Dense Granule Release. [Related pubchem assays: 1663 (Primary HTS), 1678 (Summary of Project)]. The series is classed as functional.
Series [11] has as its system Vero. Kind of series: cells. The series is classed as functional, cell-based. Conditions: Chlorocebus sabaeus.
For series [12], the system named is Vero. Briefly: cells. The series is classed as functional. Particulars: Chlorocebus sabaeus.
A further series deals with Paired box protein Pax-8 (Homo sapiens, UniProt Q06710). Briefly: PAX8 transcriptional activity inhibition in RMG-I – RMG-I cells, luciferase, cherry-pick, dose response (AID 687027).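 Further: luciferase reporter driven by Pax8 target thyroperoxidase promoter measured by SteadyGlo luminescence.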 The series is classed as functional, cell-based.
Sequence of Paired box protein Pax-8 (Q06710 whole entry): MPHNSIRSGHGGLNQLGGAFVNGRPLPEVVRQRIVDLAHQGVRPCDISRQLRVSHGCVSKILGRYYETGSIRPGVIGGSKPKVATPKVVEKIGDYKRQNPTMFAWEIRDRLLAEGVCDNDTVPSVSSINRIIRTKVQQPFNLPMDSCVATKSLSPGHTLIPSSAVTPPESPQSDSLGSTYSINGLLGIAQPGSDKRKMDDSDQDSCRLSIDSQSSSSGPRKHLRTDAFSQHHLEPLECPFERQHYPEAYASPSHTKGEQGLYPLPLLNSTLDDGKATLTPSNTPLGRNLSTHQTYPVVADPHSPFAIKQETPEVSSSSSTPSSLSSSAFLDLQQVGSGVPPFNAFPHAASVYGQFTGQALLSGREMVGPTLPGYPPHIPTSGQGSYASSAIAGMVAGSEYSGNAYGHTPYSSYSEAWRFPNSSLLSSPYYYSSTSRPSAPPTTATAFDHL

Sequence of Cytochrome P450 2D6 (P10635 whole entry): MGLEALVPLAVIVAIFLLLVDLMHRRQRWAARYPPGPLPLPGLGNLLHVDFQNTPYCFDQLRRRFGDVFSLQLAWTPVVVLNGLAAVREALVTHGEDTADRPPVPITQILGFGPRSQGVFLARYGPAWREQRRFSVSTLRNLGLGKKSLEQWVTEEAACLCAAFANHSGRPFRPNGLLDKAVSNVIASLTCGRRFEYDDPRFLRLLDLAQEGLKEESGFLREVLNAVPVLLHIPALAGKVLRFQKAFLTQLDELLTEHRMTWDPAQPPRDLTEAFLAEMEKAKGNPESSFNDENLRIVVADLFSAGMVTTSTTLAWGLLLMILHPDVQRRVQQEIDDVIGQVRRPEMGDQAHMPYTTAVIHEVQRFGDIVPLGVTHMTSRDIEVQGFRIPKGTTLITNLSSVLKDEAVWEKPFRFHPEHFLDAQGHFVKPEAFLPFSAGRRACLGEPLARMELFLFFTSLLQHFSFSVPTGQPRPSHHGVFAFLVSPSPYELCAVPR
Sequence of Nucleotide-binding oligomerization domain-containing protein 2 (Q9HC29 whole entry, the tested form may be a part): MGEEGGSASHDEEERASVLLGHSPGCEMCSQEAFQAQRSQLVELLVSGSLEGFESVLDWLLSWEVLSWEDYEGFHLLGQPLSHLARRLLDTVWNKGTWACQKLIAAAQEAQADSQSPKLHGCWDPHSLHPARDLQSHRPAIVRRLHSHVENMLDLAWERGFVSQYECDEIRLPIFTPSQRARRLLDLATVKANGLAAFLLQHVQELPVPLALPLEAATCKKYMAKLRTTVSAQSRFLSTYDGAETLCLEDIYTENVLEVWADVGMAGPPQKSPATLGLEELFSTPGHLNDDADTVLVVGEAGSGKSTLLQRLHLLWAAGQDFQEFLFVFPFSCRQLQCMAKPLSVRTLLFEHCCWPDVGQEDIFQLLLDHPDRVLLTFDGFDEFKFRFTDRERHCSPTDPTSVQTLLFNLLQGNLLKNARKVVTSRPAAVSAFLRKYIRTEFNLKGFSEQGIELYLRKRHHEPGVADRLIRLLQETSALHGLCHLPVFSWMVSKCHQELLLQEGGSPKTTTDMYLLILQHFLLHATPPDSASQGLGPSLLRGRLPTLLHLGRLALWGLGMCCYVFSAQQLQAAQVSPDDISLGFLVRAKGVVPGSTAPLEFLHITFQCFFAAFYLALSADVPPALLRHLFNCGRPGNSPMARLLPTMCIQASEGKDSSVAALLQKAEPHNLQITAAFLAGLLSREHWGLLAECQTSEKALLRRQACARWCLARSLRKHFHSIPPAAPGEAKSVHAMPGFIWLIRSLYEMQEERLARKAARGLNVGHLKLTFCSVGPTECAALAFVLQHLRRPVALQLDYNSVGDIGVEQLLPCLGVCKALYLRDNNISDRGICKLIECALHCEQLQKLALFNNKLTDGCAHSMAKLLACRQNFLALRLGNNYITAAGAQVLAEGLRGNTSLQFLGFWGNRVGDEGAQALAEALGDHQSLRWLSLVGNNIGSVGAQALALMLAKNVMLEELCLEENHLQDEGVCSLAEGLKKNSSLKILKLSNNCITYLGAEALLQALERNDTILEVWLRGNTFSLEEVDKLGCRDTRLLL
Sequence of Cytochrome P450 2C9 (P11712 whole entry): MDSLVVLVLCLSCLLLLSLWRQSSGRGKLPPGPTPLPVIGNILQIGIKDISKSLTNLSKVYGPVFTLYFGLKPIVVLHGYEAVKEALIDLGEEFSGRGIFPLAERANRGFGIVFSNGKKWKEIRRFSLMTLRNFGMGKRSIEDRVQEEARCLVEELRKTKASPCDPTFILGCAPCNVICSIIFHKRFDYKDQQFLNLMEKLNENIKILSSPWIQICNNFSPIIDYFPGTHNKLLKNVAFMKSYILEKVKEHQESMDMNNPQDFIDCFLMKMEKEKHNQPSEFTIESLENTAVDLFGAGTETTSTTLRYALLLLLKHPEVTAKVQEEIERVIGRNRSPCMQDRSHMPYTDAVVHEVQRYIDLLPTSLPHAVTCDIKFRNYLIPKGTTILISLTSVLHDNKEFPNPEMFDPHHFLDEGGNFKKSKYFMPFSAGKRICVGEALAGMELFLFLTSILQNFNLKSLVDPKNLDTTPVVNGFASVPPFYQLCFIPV
Sequence of Glucose-6-phosphate 1-dehydrogenase (P11413 whole entry): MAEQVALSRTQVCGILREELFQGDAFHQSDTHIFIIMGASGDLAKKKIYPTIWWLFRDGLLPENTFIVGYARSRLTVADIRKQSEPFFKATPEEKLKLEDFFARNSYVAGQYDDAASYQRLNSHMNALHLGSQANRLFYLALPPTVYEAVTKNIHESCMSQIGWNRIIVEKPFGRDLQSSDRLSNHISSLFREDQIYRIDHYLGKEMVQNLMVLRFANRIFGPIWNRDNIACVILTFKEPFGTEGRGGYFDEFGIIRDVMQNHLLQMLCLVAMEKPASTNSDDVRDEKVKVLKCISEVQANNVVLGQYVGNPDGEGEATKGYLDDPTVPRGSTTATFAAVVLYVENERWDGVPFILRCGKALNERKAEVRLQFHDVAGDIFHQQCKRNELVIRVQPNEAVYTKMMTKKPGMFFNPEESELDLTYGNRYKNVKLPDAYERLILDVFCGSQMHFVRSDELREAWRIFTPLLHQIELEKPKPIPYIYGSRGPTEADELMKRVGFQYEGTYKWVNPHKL
Sequence of Luciferin 4-monooxygenase (P08659 whole entry): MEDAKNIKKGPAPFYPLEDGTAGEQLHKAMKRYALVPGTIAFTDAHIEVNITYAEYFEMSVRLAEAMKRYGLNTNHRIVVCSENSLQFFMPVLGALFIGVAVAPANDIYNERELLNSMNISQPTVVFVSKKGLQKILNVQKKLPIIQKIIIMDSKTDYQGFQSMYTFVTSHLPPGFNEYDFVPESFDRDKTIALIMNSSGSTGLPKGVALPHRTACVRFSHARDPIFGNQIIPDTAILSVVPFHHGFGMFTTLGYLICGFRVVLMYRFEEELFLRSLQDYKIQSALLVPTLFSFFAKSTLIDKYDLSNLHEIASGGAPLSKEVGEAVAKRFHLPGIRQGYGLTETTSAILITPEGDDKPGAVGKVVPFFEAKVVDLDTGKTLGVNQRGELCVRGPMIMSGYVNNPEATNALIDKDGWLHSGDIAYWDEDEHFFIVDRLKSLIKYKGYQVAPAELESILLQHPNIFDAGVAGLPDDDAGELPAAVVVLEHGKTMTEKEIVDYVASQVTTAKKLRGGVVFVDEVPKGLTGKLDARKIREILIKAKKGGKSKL
Sequence of Cytochrome P450 2C19 (P33261 whole entry): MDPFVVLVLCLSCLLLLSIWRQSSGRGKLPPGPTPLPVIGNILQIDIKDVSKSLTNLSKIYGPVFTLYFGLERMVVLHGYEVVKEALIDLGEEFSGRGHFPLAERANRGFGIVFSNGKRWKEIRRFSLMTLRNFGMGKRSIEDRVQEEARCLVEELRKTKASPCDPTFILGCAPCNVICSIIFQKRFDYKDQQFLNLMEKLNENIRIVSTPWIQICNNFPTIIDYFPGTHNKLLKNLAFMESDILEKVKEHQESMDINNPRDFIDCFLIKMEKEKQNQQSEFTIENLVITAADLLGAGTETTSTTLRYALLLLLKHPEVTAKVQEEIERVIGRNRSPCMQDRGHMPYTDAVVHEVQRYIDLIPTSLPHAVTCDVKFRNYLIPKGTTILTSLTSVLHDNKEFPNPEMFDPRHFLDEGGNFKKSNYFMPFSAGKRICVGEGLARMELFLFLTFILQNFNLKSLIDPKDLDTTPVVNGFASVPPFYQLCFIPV
Sequence of Cytochrome P450 3A4 (P08684 whole entry): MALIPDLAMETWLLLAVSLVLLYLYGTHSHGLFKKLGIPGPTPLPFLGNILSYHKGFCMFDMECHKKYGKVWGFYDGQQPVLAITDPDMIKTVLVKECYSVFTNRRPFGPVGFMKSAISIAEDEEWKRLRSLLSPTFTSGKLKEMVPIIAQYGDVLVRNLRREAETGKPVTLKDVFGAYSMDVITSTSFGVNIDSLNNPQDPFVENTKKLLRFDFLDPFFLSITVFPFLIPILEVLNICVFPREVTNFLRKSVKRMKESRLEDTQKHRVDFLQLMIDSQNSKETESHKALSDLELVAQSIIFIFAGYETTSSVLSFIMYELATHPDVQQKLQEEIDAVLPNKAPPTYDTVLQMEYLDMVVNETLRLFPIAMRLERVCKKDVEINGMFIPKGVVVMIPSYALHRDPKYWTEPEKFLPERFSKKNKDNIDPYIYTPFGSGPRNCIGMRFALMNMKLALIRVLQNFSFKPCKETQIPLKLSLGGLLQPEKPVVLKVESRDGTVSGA

For `Cc1cc(C)n2nc(SCN3C(=O)c4ccccc4C3=O)nc2n1`, the AC50 on Cytochrome P450 3A4 is 6.31 µM (inconclusive); on Cytochrome P450 2D6, “inconclusive”.

Turning to `COc1ccc(C(=O)Nc2nnc(S(=O)(=O)N3CCOCC3)s2)cc1`, the IC50 in series [1] was > 80 µM (inactive).

Regarding `COc1cccc(OCc2cc(C(=O)NCc3cnc4ccccn34)no2)c1`, the EC50 with HEK293 [2] is 12.9 µM (active); in [5] it was > 20 µM (inactive). Moreover, the IC50 in the series with HEK293 [3] was 18.9 µM (active); in the series on HEK293 [4] it was > 20 µM (inactive); with HEK293 [6] it was > 20 µM (inactive); with HEK293 [7], > 20 µM (inactive).

Regarding `COc1ccc(/C=C2/C(=O)NC(=O)N(C3CCCCC3)C2=O)cc1CSc1ccccn1`, the AC50 in series [8] was 10 µM (active).

On to `CCC(=O)c1ccc(OCc2ccc(C(=O)OC)cc2)c(OC)c1`, for which the half-maximal activity concentration (AC50) at Cytochrome P450 1A2 is 6.31 µM (inconclusive); on Cytochrome P450 2C9 it was 8.91 µM (inconclusive); on Cytochrome P450 2D6 it was “inconclusive”.

For the compound `CC(C)CNC(=O)c1nc(-c2ccccc2)n(-c2ccccc2)n1`, the half-maximal activity concentration (AC50) on Cytochrome P450 2C19 is 39.8 µM (inconclusive); on Cytochrome P450 1A2 it was 28.2 µM (inconclusive); on Cytochrome P450 2C9, 39.8 µM (inconclusive); on Cytochrome P450 2D6 it was “inconclusive”.

For the compound `Cc1ccc(-n2c(C)cc(/C=c3/sc4nc5ccccc5n4c3=O)c2C)cc1`, the 50% effective concentration (EC50) in the series on HEK293 [2] was 2.95 µM (active); in series [9] it was > 112 µM (not active); in series [10], > 112 µM (not active); in series [5], 0.49 µM (active). For the same compound, the IC50 in the series with HEK293 [3] is 0.703 µM (active); with HEK293 [4], > 20 µM (inactive); with HEK293 [6], 0.48 µM (active); in the series with HEK293 [7], > 20 µM (inactive).

`CC(=O)O[C@H]1C[C@H](O[C@H]2[C@@H](O)C[C@H](O[C@H]3[C@@H](O)C[C@H](O[C@H]4CC[C@@]5(C)[C@H](CC[C@@H]6[C@@H]5C[C@@H](O)[C@]5(C)[C@@H](C7=CC(=O)OC7)CC[C@]65O)C4)O[C@@H]3C)O[C@@H]2C)O[C@H](C)[C@H]1O[C@@H]1O[C@H](CO)[C@@H](O)[C@H](O)[C@H]1O` [LANATOSIDE C]: the half-inhibitory concentration (IC50) with Vero [11] was > 25 µM (active). Besides, the 50% cytotoxic concentration (CC50) in the series on Vero [12] is 0.65 µM (active). On Paired box protein Pax-8, the AC50 was 0.801 µM (active).

(Values after ChEMBL document CHEMBL1201862, “PubChem BioAssay data set” (2004).)
